Molecules are shown by their SMILES. Some results are limits rather than exact numbers.

One experiment deals with T1, recombinant murine Aurora A enzyme (Mus musculus, UniProt P97477).
T1 construct: hexahistidine (His6) (N); made in house; host or cells: insect cells, baculovirus (Bac-to-Bac, Invitrogen)
T1 sequence (P97477 whole entry): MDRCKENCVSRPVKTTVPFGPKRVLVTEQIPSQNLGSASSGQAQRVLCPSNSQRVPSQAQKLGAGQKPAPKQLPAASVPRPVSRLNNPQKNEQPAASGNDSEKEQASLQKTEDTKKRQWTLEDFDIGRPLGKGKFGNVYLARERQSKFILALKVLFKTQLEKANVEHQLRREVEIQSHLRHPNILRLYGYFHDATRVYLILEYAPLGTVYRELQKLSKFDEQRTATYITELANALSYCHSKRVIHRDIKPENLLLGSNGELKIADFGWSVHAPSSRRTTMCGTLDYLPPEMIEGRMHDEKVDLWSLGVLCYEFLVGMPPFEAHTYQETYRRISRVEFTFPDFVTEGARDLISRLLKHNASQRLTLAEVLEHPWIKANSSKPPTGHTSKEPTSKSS
In words: Aurora A DELFIA Kinase Assay. The class given is biochemical.
Conditions: not given
The text has this:
Recombinant mouse Aurora A with an amino-terminus hexahistidine tag (His-Aurora A) was expressed using a standard baculovirus vector and insect cell expression system (Bac-to-Bac®, Invitrogen).
Soluble, recombinant mouse Aurora A was purified from insect cells using Ni-NTA agarose (Qiagen) as described by the manufacturer and further purified over an S75 size exclusion column (Amersham Pharmacia Biotech).
Aurora A DELFIA® Kinase Assay
The enzymatic reaction mixture, with and without Aurora inhibitors, was incubated for 15 minutes at room temperature before termination with 100 μL of stop buffer (1% BSA, 0.05% Surfact-AMPS-20, and 100 mM EDTA). A total of 100 μL of the enzyme reaction mixture was transferred to wells of a Neutravidin-coated 96-well plate (Pierce) and incubated at room temperature for 30 minutes. The wells were washed with wash buffer (25 mM Tris, 150 mM sodium chloride, and 0.1% Tween 20) and incubated for 1 hour with 100 μL of antibody reaction mixture containing 1% BSA, 0.05% Surfact-AMPS-20, anti-phospho-PKA rabbit polyclonal antibody (1:2000, New England Biolabs), and europium labeled anti-rabbit IgG (1:2000, Perkin Elmer). The wells were washed and then the bound europium was liberated using 100 μL of Enhancement Solution (Perkin Elmer). Quantification of europium was done using a Wallac™ EnVision (Perkin Elmer).
Usually IC50 stands for the concentration that inhibits the measured activity by half. `CC1N=C(c2c(F)cccc2F)c2cc(Cl)ccc2-c2nc(Nc3ccc(C(=O)O)cc3)ncc21` (stereo not drawn) [Compound I-371, 4-{[9-chloro-7-(2,6-difluorophenyl)-5-methyl-5H-pyrimido[5,4-d][2]benzazepin-2-yl]amino}benzoic acid]: the concentration for half-maximal inhibition (IC50) is at most 100 nM.

The same experiment, now with this note: mouse Aurora A, 250 μM ATP; threshold less than or equal to 100 nM; read-out: IC50.
Turning to `COc1cccc(F)c1C1=NCc2cnc(Nc3ccc(C(=O)N4CCC(N(C)C)CC4)cc3)nc2-c2ccc(Cl)cc21` [Compound I-186, {4-[9-Chloro-7-(2-fluoro-6-methoxy-phenyl)-5H-benzo[c]pyrimido-[4,5-e]azepin-2-ylamino]-phenyl}-(4-dimethylamino-piperidin-1-yl)-methanone], the IC50 was at most 100 nM.

Consider `COc1cccc(F)c1C1=NCc2cnc(Nc3ccc(C(=O)N4CCC(N(C)C)C4)cc3)nc2-c2ccc(Cl)cc21` (stereo not drawn) [Compound I-178, 9-Chloro-N-(4-{[3-(dimethylamino)pyrrolidin-1-yl]carbonyl}phenyl)-7-(2-fluoro-6-methoxyphenyl)-5H-pyrimido[5,4-d][2]benzazepin-2-amine], for which the IC50 was at most 100 nM.

For the compound `O=C(O)c1ccc(Nc2ncc3c(n2)-c2ccc(Br)cc2C(c2c(F)cccc2F)=NC3)cc1` [Compound I-274, 4-{[9-bromo-7-(2,6-difluorophenyl)-5H-pyrimido[5,4-d][2]benzazepin-2-yl]amino}benzoic acid], the IC50 is at most 100 nM.

As to `CN(C)C1CCN(C(=O)c2ccc(Nc3ncc4c(n3)-c3ccc(Cl)cc3C(c3c(F)cccc3F)=NC4)cc2Cl)C1` (stereo not drawn) [Compound I-215, 9-chloro-N-(3-chloro-4-{[3-(dimethylamino)pyrrolidin-1-yl]carbonyl}phenyl)-7-(2,6-difluorophenyl)-5H-pyrimido[5,4-d][2]benzazepin-2-amine], the 50% inhibitory concentration (IC50) was at most 100 nM.

As for `CNCCCN(C)C(=O)c1ccc(Nc2ncc3c(n2)-c2ccc(Cl)cc2C(c2c(F)cccc2OC)=NC3)cc1` [Compound I-261, 4-{[9-chloro-7-(2-fluoro-6-methoxyphenyl)-5H-pyrimido[5,4-d][2]benzazepin-2-yl]amino}-N-methyl-N-[3-(methylamino)propyl]benzamide], the IC50 is at most 100 nM.

With `CNC1CCN(C(=O)c2ccc(Nc3ncc4c(n3)-c3ccc(Cl)cc3C(c3ccccn3)=NC4)cc2)CC1` [Compound I-316, 9-chloro-N-(4-{[4-(methylamino)piperidin-1-yl]carbonyl}phenyl)-7-pyridin-2-yl-5H-pyrimido[5,4-d][2]benzazepin-2-amine], the IC50 was at most 100 nM.

Take `Nc1ccc(Nc2ncc3c(n2)-c2ccc(Cl)cc2C(c2c(F)cccc2F)=NC3)cc1` [Compound I-217, N-[9-chloro-7-(2,6-difluorophenyl)-5H-pyrimido[5,4-d][2]benzazepin-2-yl]benzene-1,4-diamine]: the IC50 was at most 100 nM.

Consider `C[C@@H]1CNCCN1C(=O)c1ccc(Nc2ncc3c(n2)-c2ccc(Cl)cc2C(c2c(F)cccc2F)=NC3)cc1` [Compound I-366, 9-chloro-7-(2,6-difluorophenyl)-N-(4-{[(2R)-2-methylpiperazin-1-yl]carbonyl}phenyl)-5H-pyrimido[5,4-d][2]benzazepin-2-amine], for which the IC50 was at most 100 nM.

Turning to `CNC1CCCN(C(=O)c2ccc(Nc3ncc4c(n3)-c3ccc(Cl)cc3C(c3c(F)cccc3F)=NC4)cc2)C1` (stereo not drawn) [Compound I-253, 9-chloro-7-(2,6-difluorophenyl)-N-(4-{[3-(methylamino)piperidin-1-yl]carbonyl}phenyl)-5H-pyrimido[5,4-d][2]benzazepin-2-amine], the IC50 is at most 100 nM.

In the case of `CN(C)C1CCN(C(=O)c2cc(Nc3ncc4c(n3)-c3ccc(Cl)cc3C(c3c(F)cccc3F)=NC4)ccc2Cl)CC1` [Compound I-269, 9-chloro-N-(4-chloro-3-{[4-(dimethylamino)piperidin-1-yl]carbonyl}phenyl)-7-(2,6-difluorophenyl)-5H-pyrimido[5,4-d][2]benzazepin-2-amine], the IC50 is at most 100 nM.

For `Cc1ccccc1C1=NCc2cnc(Nc3ccc(C(=O)NCCCN4CCN(C)CC4)cc3)nc2-c2ccc(Cl)cc21` [Compound I-21, 4-(9-Chloro-7-o-tolyl-5H-benzo[c]pyrimido[4,5-e]azepin-2-ylamino)-N-[3-(4-methyl-piperazin-1-yl)-propyl]-benzamide], the 50% inhibitory concentration (IC50) is at most 100 nM.

Take `NC(=O)C1CN(C(=O)c2ccc(Nc3ncc4c(n3)-c3ccc(Cl)cc3C(c3c(F)cccc3F)=NC4)cc2)CCN1` (stereo not drawn) [Compound I-317, 4-(4-{[9-chloro-7-(2,6-difluorophenyl)-5H-pyrimido[5,4-d][2]benzazepin-2-yl]amino}benzoyl)piperazine-2-carboxamide]: the IC50 is at most 100 nM.

Regarding `Cc1ccccc1C1=NCc2cnc(Nc3ccc(C(=O)O)cc3)nc2-c2ccc(Cl)cc21` [Compound I-54, 4-(9-Chloro-7-o-tolyl-5H-benzo[c]pyrimido[4,5-e]azepin-2-ylamino) -benzoic acid], the IC50 was at most 100 nM.

As to `COc1cccc(F)c1C1=NCc2cnc(Nc3cccc(C(=O)N(C)CCCN(C)C)c3)nc2-c2ccc(Cl)cc21` [Compound I-226, 3-{[9-chloro-7-(2-fluoro-6-methoxyphenyl)-5H-pyrimido[5,4-d][2]benzazepin-2-yl]amino}-N-[3-(dimethylamino)propyl]-N-methylbenzamide], the concentration for half-maximal inhibition (IC50) was at most 100 nM.

Consider `CN(C)C1CN(C(=O)c2ccc(Nc3ncc4c(n3)-c3ccc(Cl)cc3C(c3ccccc3F)=NC4)cc2)C1` [Compound I-98, {4-[9-Chloro-7-(2-fluoro-phenyl)-5H-benzo[c]pyrimido[4,5-e]azepin-2-ylamino]-phenyl}-(3-dimethylamino-azetidin-1-yl)-methanone], for which the IC50 was at most 100 nM.

`CNCCCN(C)C(=O)c1ccc(Nc2ncc3c(n2)-c2ccc(Cl)cc2C(c2c(F)cccc2F)=NC3)cc1` [Compound I-198, 4-[9-Chloro-7-(2,6-difluoro-phenyl)-5H-benzo[c]pyrimido[4,5-e]azepin-2-ylamino]-N-methyl-N-(3-methylamino-propyl)-benzamide]: the IC50 was at most 100 nM.

As for `NC(=O)c1ccc(Nc2ncc3c(n2)-c2ccc(Cl)cc2C(c2ccccc2Cl)=NC3)cc1` [Compound I-63, 4-[9-Chloro-7-(2-chloro-phenyl)-5H-benzo[c]pyrimido[4,5-e]azepin-2-ylamino]-benzamide], the concentration for half-maximal inhibition (IC50) is at most 100 nM.

With `O=C(c1ccc(Nc2ncc3c(n2)-c2ccc(Cl)cc2C(c2ccccc2F)=NC3)cc1)N1CCN(CCCN2CCCC2)CC1` [Compound I-188, {4-[9-Chloro-7-(2-fluoro-phenyl)-5H-benzo[c]pyrimido[4,5-e]azepin-2-ylamino]-phenyl}-[4-(3-pyrrolidin-1-yl-propyl)-piperazin-1-yl]-methanone], the IC50 was at most 100 nM.

On to `O=C(Nc1ccc(Nc2ncc3c(n2)-c2ccc(Cl)cc2C(c2c(F)cccc2F)=NC3)cc1)C1CCNCC1` [Compound I-319, N-(4-{[9-chloro-7-(2,6-difluorophenyl)-5H-pyrimido[5,4-d][2]benzazepin-2-yl]amino}phenyl)piperidine-4-carboxamide], for which the IC50 was at most 100 nM.

Turning to `CN(C)CCCN1CCN(C(=O)c2ccc(Nc3ncc4c(n3)-c3ccc(Cl)cc3C(c3ccccc3F)=NC4)cc2)CC1` [Compound I-210, 9-chloro-N-[4-({4-[3-(dimethylamino)propyl]piperazin-1-yl}carbonyl)phenyl]-7-(2-fluorophenyl)-5H-pyrimido[5,4-d][2]benzazepin-2-amine], the IC50 is at most 100 nM.

On to `CN(C)C1CCN(C(=O)c2ccc(Nc3ncc4c(n3)-c3ccc(Cl)cc3C(c3c(F)cccc3F)=NC4)cc2)C1` (stereo not drawn) [Compound I-176, 9-Chloro-7-(2,6-difluorophenyl)-N-(4-{[3-(dimethylamino)pyrrolidin-1-yl]carbonyl}phenyl)-5H-pyrimido[5,4-d][2]benzazepin-2-amine], for which the IC50 is at most 100 nM.

For `CC(=O)c1ccc(Nc2ncc3c(n2)-c2ccc(Cl)cc2C(c2c(F)cccc2F)=NC3)cc1` [Compound I-337, 1-(4-{[9-chloro-7-(2,6-difluorophenyl)-5H-pyrimido[5,4-d][2]benzazepin-2-yl]amino}phenyl)ethanone], the IC50 is at most 100 nM.

For `CN1CCN(CCCNC(=O)c2ccc(Nc3ncc4c(n3)-c3ccc(Cl)cc3C(c3ccccc3F)=NC4)cc2)CC1` [Compound I-19, 4-[9-Chloro-7-(2-fluoro-phenyl)-5H-benzo[c]pyrimido[4,5-e]azepin-2-ylamino]-N-[3-(4-methyl-piperazin-1-yl)-propyl]-benzamide], the IC50 is at most 100 nM.

On to `O=C(O)c1ccc(Nc2ncc3c(n2)-c2ccc(Cl)cc2C(c2ccccc2F)=NC3)cc1` [Compound I-52, 4-[9-Chloro-7-(2-fluoro-phenyl)-5H-benzo[c]pyrimido[4,5-e]azepin-2-ylamino]-benzoic acid], for which the IC50 is at most 100 nM.

On to `NC1CCN(C(=O)c2ccc(Nc3ncc4c(n3)-c3ccc(Cl)cc3C(c3c(F)cccc3F)=NC4)cc2Cl)C1` (stereo not drawn) [Compound I-318], for which the concentration for half-maximal inhibition (IC50) is at most 100 nM.

On to `CCN(CC)CCN1CCN(C(=O)c2ccc(Nc3ncc4c(n3)-c3ccc(Cl)cc3C(c3ccccc3F)=NC4)cc2)CC1` [Compound I-209, 9-chloro-N-[4-({4-[2-(diethylamino)ethyl]piperazin-1-yl}carbonyl)phenyl]-7-(2-fluorophenyl)-5H-pyrimido[5,4-d][2]benzazepin-2-amine], for which the IC50 was at most 100 nM.
